From patent publication US20230190731A1, “FORMULATION COMPRISING HIF PROLYL HYDROXYLASE INHIBITORS” (ZYDUS LIFESCIENCES LIMITED, priority 2020, published 2023)

Assays:
[1] = test system: hypoxia inducible factor (HIF) prolyl hydroxylase; assay: Inhibition of hypoxia inducible factor (HIF) prolyl hydroxylase (statement only); assay type: biochemical
[2] = Solubility of compounds of formula (Ia) in various media; assay type: physicochemical

Question: What does the source list for `O=C(O)CNC(=O)c1c(O)c2ccccc2n(OCC2CC2)c1=O` [Compound (Ia)]?
Answer: inhibitor of HIF prolyl hydroxylase [1]: potent inhibitor; solubility ([2]; in 0.1 N HCL): insoluble; solubility ([2]; in N,N-dimethyl formamide): freely soluble; solubility ([2]; in alkaline aqueous condition): soluble; solubility ([2]; in water): partially soluble
